{"source": "patent US20240218059A1", "about": "“TGF-Beta 1 INHIBITORS FOR PREVENTING AND TREATING SARS-COV-2” (The Regents of the University of Colorado, A Body Corporate, priority 2020, published 2024)", "key": {"[1]": {"target": "T1, human latent TGF-β1 (Homo sapiens, UniProt P01137)", "T1 construct": "purchased Acrobio, Inc", "T1 sequence (P01137 30-278 limits assumed)": "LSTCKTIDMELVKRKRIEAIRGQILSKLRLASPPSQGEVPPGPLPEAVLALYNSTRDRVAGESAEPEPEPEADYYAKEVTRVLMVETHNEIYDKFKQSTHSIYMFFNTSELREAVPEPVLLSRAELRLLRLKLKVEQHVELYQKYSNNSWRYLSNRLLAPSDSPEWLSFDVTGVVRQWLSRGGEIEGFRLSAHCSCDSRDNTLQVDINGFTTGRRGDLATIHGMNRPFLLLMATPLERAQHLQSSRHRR", "type": "cell-based", "conditions": "peptide incubated 45 minutes at 37° C. with 2 nM human latent TGF-β1, then 18 hours on MLEC; FIG. 5"}, "[2]": {"tested_on": "TGF-β1 signaling caused by NSP15 activation of human latent TGF-β1", "type": "cell-based, mink", "conditions": "1 hour pre-incubation; 2 μg/ml of antibody or 1-2 μM small molecule; 0-2.4 nM NSP15 plus 2 nM latent human TGF-β1; MLEC; FIG. 8"}, "[3]": {"tested_on": "active TGF-β1 signaling", "assay": "inhibition of active TGF-β1 signaling in MLEC luciferase reporter cells", "type": "cell-based, mink", "experimental": "In these experiments, SB505124 and galunisertib (Fisher, Inc.) inhibitors were added at 1-2 uM concentrations to MLEC plated in 96-well plates using a 1 hour pre-incubation before addition of human active TGF-β1 in […] concentrations with continued presence of the inhibitor for 18 hours overnight in standard conditions as described in Example 2 methods. A neutraceutical, the green tea catechin ECGC (Sigma) was also tested. Luciferase signals were determined after cell lysis and compared as in Example 2."}}}
{"molecule": "KFILALRKLLFESEGP [SCR]", "values": [{"measurement": "activation of latent TGF-β1 (luciferase signal, RLU)", "setting": "[1]", "value": "not"}]}
{"molecule": "DKRFKQDGGWSHWSPW [TSP1]", "values": [{"measurement": "activation of latent TGF-β1 (luciferase signal, RLU)", "setting": "[1]", "value": "not a significant activator of latent TGF-β1"}]}
{"molecule": "Cc1cccc(-c2nn3c(c2-c2ccnc4ccc(C(N)=O)cc24)CCC3)n1", "note": "[galunisertib]", "values": [{"measurement": "block of NSP15 mediated effects on TGF-β1 signaling", "setting": "[2]", "value": "block NSP15 mediated effects on TGF-β1 signaling"}]}
{"molecule": "Cc1cccc(-c2[nH]c(C(C)(C)C)nc2-c2ccc3c(c2)OCO3)n1", "note": "[SB505124]", "values": [{"measurement": "block of NSP15 mediated effects on TGF-β1 signaling", "setting": "[2]", "value": "block NSP15 mediated effects on TGF-β1 signaling"}]}
{"molecule": "LLIGLAKRFKESPFEL [NSP15 KRFK-region peptide, 16 amino acid synthetic peptide centered on the SARS-CoV2 NSP15 KRFK region]", "values": [{"measurement": "activation of latent TGF-β1 (luciferase signal, RLU)", "setting": "[1]", "value": "activates latent TGF-β1"}]}
{"molecule": "O=C(O[C@@H]1Cc2c(O)cc(O)cc2O[C@@H]1c1cc(O)c(O)c(O)c1)c1cc(O)c(O)c(O)c1", "note": "[ECGC]", "values": [{"measurement": "inhibition of active TGF-β1 signaling at higher concentrations", "setting": "[3]; 80 uM, subsequent experiments, not shown", "value": 80, "unit": "%"}, {"measurement": "effectiveness at blocking active TGF-β1 signaling", "setting": "[3]; 1-2 μM concentrations, MLEC, FIG. 7", "value": "not effective"}]}
